From PMC9740829, “Salvianolic Acid B Strikes Back: New Evidence in the Modulation of Expression and Activity of Matrix Metalloproteinase 9 in MDA-MB-231 Human Breast Cancer Cells” (Molecules, 2022)

Target: T1, matrix metalloproteinase 9 (MMP-9) (Homo sapiens, UniProt P14780)
T1 construct: gene MMP9; recombinant catalytic domain of MMP-9 (CDMMP-9), 39 kDa, aa 107–457 + NT His Tag
Test: fluorometric inhibition assay with self-quenched peptide substrate; double reciprocal and secondary plots
Format: biochemical
Excerpt: fluorometric inhibition assay with self-quenched peptide substrate; double reciprocal and secondary plots on matrix metalloproteinase 9 (MMP-9) | competitive inhibition of the activity performed by the MMP-9 catalytic domain (CDMMP-9) (Figure 3A), and allowed to define a Ki

T1 sequence (P14780 107-457): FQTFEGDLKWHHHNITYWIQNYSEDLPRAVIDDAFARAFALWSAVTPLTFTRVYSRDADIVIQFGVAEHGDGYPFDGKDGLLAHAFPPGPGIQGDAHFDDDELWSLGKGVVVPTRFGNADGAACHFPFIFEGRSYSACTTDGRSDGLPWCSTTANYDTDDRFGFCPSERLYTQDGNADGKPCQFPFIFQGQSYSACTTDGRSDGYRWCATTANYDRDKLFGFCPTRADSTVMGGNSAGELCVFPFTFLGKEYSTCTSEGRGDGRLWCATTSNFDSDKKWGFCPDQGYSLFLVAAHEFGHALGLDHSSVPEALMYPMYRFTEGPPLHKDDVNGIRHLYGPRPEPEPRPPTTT

SMILES: O=C(/C=C/c1ccc(O)c2c1[C@H](C(=O)O[C@H](Cc1ccc(O)c(O)c1)C(=O)O)[C@@H](c1ccc(O)c(O)c1)O2)O[C@H](Cc1ccc(O)c(O)c1)C(=O)O [SalB, Salvianolic acid B]
- Ki: 57.4 ± 3.96 µM
